test system: H3K18Ac in HB-CLS-2 cells; test: H3K18AC in-cell western (ICW) assay; assay type: cell-based; conditions: H3K18Ac in-cell western, HB-CLS-2 cells; read-out: CREBBP ICW IC50
From the text: The following example describes methods and materials relating to an H3K18AC in-cell western assay. IC50 values (micromolar (μM)) are summarized in Table 1, Table 2, and Table 3 under the column labeled: “CREBBP ICW IC50 (micromolar).”
MATERIALS: HB-CLS-2 cell line, DMEM: Ham's F12 medium (1:1 mixture), penicillin-streptomycin, heat inactivated fetal bovine serum, D-PBS, Odyssey blocking buffer, 800CW goat anti-rabbit IgG (H+L) antibody, Licor Odyssey CLx Infrared Scanner, H3K18Ac rabbit monoclonal antibody. DRAQS fluorescent probe solution (5 mM), and 100% methanol were commercially available. HB-CLS-2 adherent cells were maintained in complete growth medium (DMEM: Ham's F12 supplemented with 10% v/v heat inactivated fetal bovine serum) and cultured at 37° C. under 5% CO2.
METHOD: Cell Treatment, ICW for detection of H3K18Ac and DNA content. HB-CLS-2 cells were seeded in assay medium (DMEM: Ham's F12 supplemented with 10% v/v heat inactivated fetal bovine serum and 1% Penicillin/Streptomycin) at a concentration of 80,000 cells per mL in a Poly-D-Lysine coated 384-well culture plates at 50 μL per well. Plates were incubated at room temperature for 30 minutes and then incubated at 37° C., 5% CO2 for additional 16-24 hours. Compounds and DMSO normalization were then added directly to the plates using a D300 Digital Dispenser and returned to the incubator at 37° C., 5% CO2 for 2 hrs. After the incubation, the contents of the plates were discarded into the appropriate waste stream and blotted on laboratory tissue to remove residual liquid. 90 μL per well of 100% ice cold methanol was added to the plates and incubated at room temperature for 15 minutes. Then methanol was then discarded into the appropriate waste stream and the plates again blotted on laboratory tissue to remove residual liquid. Plates were transferred to a Biotek 405 plate washer and washed 3 times with 100 μL per well of wash buffer (1X PBS containing 0.1% Triton X-100 (v/v)). Next, 50 μL per well of Odyssey blocking buffer with 0.1% Tween 20 (v/v) was added to each plate and incubated for 1 hour at room temperature. Blocking buffer was removed and 20 μL of primary antibody were added (α-H3K18Ac diluted 1:800 in Odyssey buffer with 0.1% Tween 20 (v/v)) and plates were incubated overnight (16 hours) at 4° C. Plates were washed 5 times with 100 μL per well of wash buffer. Next 20 μL per well of secondary antibody was added (1:400 800CW goat anti-rabbit IgG (H+L) antibody, 1:2000 DRAQ5 in Odyssey buffer with 0.1% Tween 20 (v/v)) and incubated for 1 hour at room temperature. The plates were washed 3 times with 100 μL per well wash buffer then 3 times with 100 μL per well of water. Plates were allowed to dry at room temperature then imaged on the Licor Odyssey CLx machine which measured integrated intensity at 700 nm and 800 nm wavelengths. Both 700 and 800 channels were scanned.

Compound `CCn1ncc(CN(C)C(=O)c2cc(-c3ccc(OCCNC(C)=O)c(C)n3)nc3ccc(Cl)cc23)c1C` [Compound 431] has an IC50 of 0.84 µM.

biological target: T1, CREBBP (1084-1701) (Homo sapiens, UniProt Q92793); test: Biochemical assay for CREBBP (1084-1701), SAMDI; conditions: SAMDI, read-out: CREBBP Biochemistry IC50
T1 construct: measured in the following biochemical assay using CREBBP (1084-1701); purchased
T1 sequence (Q92793 1084-1701): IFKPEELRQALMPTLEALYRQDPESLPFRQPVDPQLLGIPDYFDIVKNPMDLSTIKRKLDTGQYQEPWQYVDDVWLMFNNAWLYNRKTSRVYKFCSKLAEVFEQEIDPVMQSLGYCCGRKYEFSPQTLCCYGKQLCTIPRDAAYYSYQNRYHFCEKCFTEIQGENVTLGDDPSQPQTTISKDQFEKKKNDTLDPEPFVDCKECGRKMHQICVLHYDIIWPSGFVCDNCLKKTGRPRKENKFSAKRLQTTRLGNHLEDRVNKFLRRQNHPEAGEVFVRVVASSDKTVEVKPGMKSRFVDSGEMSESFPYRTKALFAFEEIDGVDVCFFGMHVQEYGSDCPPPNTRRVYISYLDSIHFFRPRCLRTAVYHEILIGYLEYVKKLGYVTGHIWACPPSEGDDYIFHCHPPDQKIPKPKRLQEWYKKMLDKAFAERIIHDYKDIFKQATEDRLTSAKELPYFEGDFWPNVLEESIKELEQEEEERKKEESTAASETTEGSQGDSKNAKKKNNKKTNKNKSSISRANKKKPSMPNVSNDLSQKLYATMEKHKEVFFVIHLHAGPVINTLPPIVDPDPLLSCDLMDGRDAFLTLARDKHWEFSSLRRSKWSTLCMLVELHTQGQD
From the text: The following example describes materials and methods relating to a biochemical assay for CREBBP (1084-1701). IC50 values (micromolar (μM)) are summarized in Table 1, Table 2, and Table 3 under the column labeled: “CREBBP Biochemistry IC50 (micromolar).”
MATERIALS: Reagents 1M Tris pH 8.0, Tween 20 10%, DTT, bovine serum gelatin (BSG) 2%, Peptide #233 (biotin-H3 11-25, K14R, K23R), Acetyl-CoA, CREBBP (1084-1701), formic acid (100%), and sodium bicarbonate were commercially available.
METHODS: The effect of compounds was measured in the following biochemical assay using CREBBP (1084-1701). Enzyme mix 30 μL per well was added using a Multi-drop to wells of prepared Compound Stock plate. The enzyme was incubated in the Compound Stock plate for 30 minutes at room temperature. Substrate mix, 20 μL per well, was added to Compound Stock plate using a Multi-drop. The plate was covered and incubate 30 minutes at room temperature. The reaction was stopped with addition of 5 μL per well of 5% formic acid using a Multi-drop. The plate was Incubated for 30 minutes at room temperature. The reaction mixture was neutralized with addition of 5 μL per well of 10% sodium bicarbonate using a Multi-drop. The plate was Incubated for 35 minutes at room temperature. The reaction mixture was Transferred 2.5 μL per well to a SAMDI biochip. The plate was Incubated for 60 minutes at room temperature. The samples were washed, dried, and matrix applied to SAMDI biochip. The SAMDI biochip was then read on the mass spectrometer.

`CCn1ncc(CN(C)C(=O)c2cc(-c3ccccc3Cl)nc3cc(F)ccc23)c1C` [Compound 253] and `CCn1ncc(CN(C)C(=O)c2cc(-c3ccccc3Cl)nc3cc(C)ccc23)c1C` [Compound 263] are within 1.5-fold of each other in IC50: 90 µM for the first, 87 µM for the second.

First: CCn1ncc(CN(C)C(=O)c2nc(-c3cccc(Cl)c3)nc3ccc(Cl)c(C)c23)c1C [Compound 256]
Second: CCn1ncc(CN(C)C(=O)c2nc(-c3cccc(Cl)c3)nc3ccc(C)cc23)c1C [Compound 275]
The IC50 of the first is 100-fold higher: 1.4 µM for the first, 0.014 µM for the second.

Going from `CCn1ncc(CN(C)C(=O)c2cc(-c3cn(C)cn3)nc3cc(Cl)ccc23)c1C` [Compound 257] to `CCn1ncc(CN(C)C(=O)c2cc(-c3cnn(C)c3)nc3ccc(Cl)cc23)c1C` [Compound 289], the IC50 falls from 120 µM to 26 µM (4.6-fold).

Going from `CCn1ncc(CN(C)C(=O)c2nc(-c3ccccn3)nc3ccc(Cl)cc23)c1C` [Compound 262] to `CCn1ncc(CN(C)C(=O)c2nc(-c3ccccn3)nc3cc(Cl)ccc23)c1C` [Compound 327], the IC50 rises from 5.4 µM to 152 µM (28-fold).

First: Cc1c(CN(C)C(=O)c2cc(-c3cccc(Cl)c3)nc3ccccc23)cnn1C [Compound 265]
Second: CCn1ncc(CN(C)C(=O)c2cc(-c3cccc(Cl)c3)nc3ccccc23)c1C [Compound 352]
The IC50 of the first is 4.8-fold higher: 195 µM for the first, 41 µM for the second. The second is the more potent here.

First: CCn1ncc(CN(C)C(=O)c2cc(-c3ccccc3Cl)nc3c(Cl)cccc23)c1C [Compound 269]
Second: CCn1ncc(CN(C)C(=O)c2cc(-c3ccccc3Cl)nc3c(C)cccc23)c1C [Compound 340]
The IC50 of the first is 1.5-fold lower: 26 µM for the first, 40 µM for the second.

Compared with `CCn1ncc(CN(C)C(=O)c2cc(-c3ccccc3Cl)nc3cc(Cl)ccc23)c1C` [Compound 270], `CCn1ncc(CN(C)C(=O)c2cc(-c3ccccc3Cl)nc3cc(OC)ccc23)c1C` [Compound 322] is 5.4-fold higher in IC50: 25 µM for the first, 134 µM for the second.

First: CN(Cc1cc2n(n1)CCC2)C(=O)c1cc(-c2cccc(Cl)c2)nc2ccc(Cl)cc12 [Compound 271]
Second: CN(Cc1cnn2c1CCC2)C(=O)c1cc(-c2cccc(Cl)c2)nc2ccc(Cl)cc12 [Compound 367]
The IC50 of the first is 5.1-fold lower: 14 µM for the first, 72 µM for the second. The first is the more potent here.

Compared with `CCn1ncc(CN(C)C(=O)c2cc(-c3ccccc3)nc3ccc(OC)cc23)c1C` [Compound 272], `CCn1ncc(CN(C)C(=O)c2cc(-c3cccc(Cl)c3)nc3ccc(OC)cc23)c1C` [Compound 273] is 3.5-fold lower in IC50: 66 µM for the first, 19 µM for the second. The second is the more potent here.

Compared with `CCc1ncc(CN(C)C(=O)c2nc(-c3cccc(Cl)c3Cl)nc3ccc(Cl)cc23)n1C` [Compound 274], `CCn1nnc(CN(C)C(=O)c2nc(-c3ccccc3Cl)nc3ccc(Cl)cc23)c1C` [Compound 292] is 16000-fold higher in IC50: 0.0032 µM for the first, 50 µM for the second. The first is the more potent here.

Compared with `CCn1ncc(CN(C)C(=O)c2nc(-c3ncccn3)nc3ccc(Cl)cc23)c1C` [Compound 278], `CCn1ncc(CN(C)C(=O)c2cc(-c3ncccn3)nc3ccc(Cl)cc23)c1C` [Compound 371] is 5.3-fold lower in IC50: 132 µM for the first, 25 µM for the second.

First: CCn1ncc(CN(C)C(=O)c2nc(-c3cccc(C(F)(F)F)c3)nc3ccc(Cl)cc23)c1C [Compound 280]
Second: CCn1ncc(CN(C)C(=O)c2nc(-c3cccc(Cl)c3)nc3ccc(F)cc23)c1C [Compound 309]
The IC50 of the first is 6.7-fold lower: 0.27 µM for the first, 1.8 µM for the second. The first is the more potent here.

Compared with `CCn1nnc(CN(C)C(=O)c2cc(-c3ccccc3Cl)nc3ccc(Cl)cc23)c1C` [Compound 291], `CCc1n[nH]c(CN(C)C(=O)c2cc(-c3ccccc3Cl)nc3ccc(Cl)cc23)c1C` [Compound 298] is 2.9-fold lower in IC50: 89 µM for the first, 31 µM for the second.

`Cc1c(CN(C)C(=O)c2cc(-c3cccc(Cl)c3)nc3ccccc23)cnn1C(C)C` [Compound 304] and `CCn1ncc(CN(C)C(=O)c2cc(-c3cccc(Cl)c3)nc3ccccc23)c1C` [Compound 354] are within 1.5-fold of each other in IC50: 43 µM for the first, 38 µM for the second.

Going from `CCn1ncc(CN(C)C(=O)c2nc(-c3ccccc3Cl)nc3ccc(C#N)cc23)c1C` [Compound 310] to `CCn1ncc(CN(C)C(=O)c2nc(-c3ccccc3Cl)nc3ccc(C)cc23)c1C` [Compound 370], the IC50 falls from 48 µM to 0.67 µM (72-fold). The second is the more potent here.

`CCn1ncc(CN(C)C(=O)c2cc(-c3cccc(Cl)c3)nc3ccc(N)cc23)c1C` [Compound 311] and `CCn1ncc(CN(C)C(=O)c2cc(-c3cccc(Cl)c3)nc3ccc(F)cc23)c1C` [Compound 368] are within 1.5-fold of each other in IC50: 18 µM for the first, 15 µM for the second.

Compared with `CCOc1ccc2nc(-c3cccc(Cl)c3)cc(C(=O)N(C)Cc3cnn(CC)c3C)c2c1` [Compound 319], `CCc1ccc2nc(-c3cccc(Cl)c3)cc(C(=O)N(C)Cc3cnn(CC)c3C)c2c1` [Compound 328] is 410-fold lower in IC50: 120 µM for the first, 0.29 µM for the second.

`CCn1ncc(CN(C)C(=O)c2cc(-c3ccc[nH]3)nc3ccc(Cl)cc23)c1C` [Compound 320] and `CCn1ncc(CN(C)C(=O)c2cc(-c3cccnc3)nc3ccc(Cl)cc23)c1C` [Compound 325] are within 1.5-fold of each other in IC50: 51 µM for the first, 55 µM for the second.

Compared with `CCn1ncc(CN(C)C(=O)c2cc(-c3ccccn3)nc3ccccc23)c1C` [Compound 326], `CCn1ncc(CN(C)C(=O)c2cc(-c3ccccc3)nc3ccccc23)c1C` [Compound 343] is 4.4-fold higher in IC50: 40 µM for the first, 176 µM for the second.

`CCn1ncc(CN(C)C(=O)c2cc(-c3cccc(C#N)c3)nc3ccc(Cl)cc23)c1C` [Compound 332] and `CCn1ncc(CN(C)C(=O)c2cc(-c3cccnc3)nc3ccc(Cl)cc23)c1C` [Compound 364] are within 1.5-fold of each other in IC50: 27 µM for the first, 34 µM for the second.

Compared with `CCn1ncc(CN(C)C(=O)c2nc(-c3cc(Cl)ccn3)nc3ccc(Cl)cc23)c1C` [Compound 333], `CCn1ncc(CN(C)C(=O)c2nc(-c3ncccc3OC)nc3ccc(Cl)cc23)c1C` [Compound 348] is 5.4-fold higher in IC50: 3.9 µM for the first, 21 µM for the second.

Compared with `CCn1ncc(CN(C)C(=O)c2nc(-c3cnn(C)c3)nc3ccc(Cl)cc23)c1C` [Compound 339], `CCn1ncc(CN(C)C(=O)c2nc(-c3ccccc3Cl)nc3cc(Cl)ccc23)c1C` [Compound 344] is 1.6-fold higher in IC50: 29 µM for the first, 45 µM for the second. The first is the more potent here.

First: CCn1ncc(CN(C)C(=O)c2cc(-c3cncc(Cl)c3)nc3ccc(Cl)cc23)c1C [Compound 341]
Second: CCn1ncc(CN(C)C(=O)c2cc(-c3ncccc3OC)nc3ccc(Cl)cc23)c1C [Compound 345]
The IC50 of the first is 6-fold lower: 12 µM for the first, 72 µM for the second. The first is the more potent here.

`CCn1ncc(CN(C)C(=O)c2cc(-c3ccccc3OC)nc3ccccc23)c1C` [Compound 351] and `CCn1ncc(CN(C)C(=O)c2cc(-c3ccccc3Cl)nc3ccccc23)c1C` [Compound 376] are the same in IC50: 32 µM for the first, 32 µM for the second.

Going from `CCn1ncc(CN(C)C(=O)c2cc(-c3cccc(C)c3)nc3ccccc23)c1C` [Compound 353] to `CCn1ncc(CN(C)C(=O)c2cc(-c3ccccc3F)nc3ccccc23)c1C` [Compound 378], the IC50 falls from 84 µM to 48 µM (1.8-fold). The second is the more potent here.

First: CCn1ncc(CN(C)C(=O)c2nc(-c3ccc(OCCCN(C)C(=O)OC(C)(C)C)c(OC)c3)nc3ccc(Cl)cc23)c1C [Compound 355]
Second: CCc1ccc2c(C(=O)N(C)Cc3cnn(CC)c3C)cc(-c3ccccc3Cl)nc2c1 [Compound 375]
The IC50 of the first is 27-fold lower: 3.8 µM for the first, 102 µM for the second.

`CCn1ncc(CN(C)C(=O)c2cc(-c3ccccc3Cl)nc3c(F)cccc23)c1C` [Compound 365] gave an IC50 of 14 µM.

Source: patent publication US20220144812A1, “QUINOLINE DERIVATIVES AND THEIR USE FOR THE TREATMENT OF CANCER” (Epizyme, Inc., priority 2019, published 2022)
